Experimental findings from paper PMC9781087, “Discovery of New Microbial Collagenase Inhibitors” (Life, 2022) are described below.

Where two headings read alike, the source gives them in different places.

The experiment concerns the target collagenase A (ColA) (Clostridium perfringens, UniProt P43153). The experiment can be described thus: biochemical. More on the design: species or system C. perfringens. Particulars: for Inhibition (%) on ColA: after 30 min of incubation.
Where [1] appears, read: 100 µM, preliminary screening (Table S1), * = compound precipitated due to low solubility.
Where [2] appears, read: read-out: Inhibition(%) on ColA.
The mark [3] stands for this setting: 5 µM, mean ± SD of three replications.
Setting [4] is: read-out: Inhibition (%) on ColA.

By inhibition is commonly meant the change of the read-out against control, counted positive when it falls.

Chain of collagenase A (ColA) (P43153 87-1104 limits assumed): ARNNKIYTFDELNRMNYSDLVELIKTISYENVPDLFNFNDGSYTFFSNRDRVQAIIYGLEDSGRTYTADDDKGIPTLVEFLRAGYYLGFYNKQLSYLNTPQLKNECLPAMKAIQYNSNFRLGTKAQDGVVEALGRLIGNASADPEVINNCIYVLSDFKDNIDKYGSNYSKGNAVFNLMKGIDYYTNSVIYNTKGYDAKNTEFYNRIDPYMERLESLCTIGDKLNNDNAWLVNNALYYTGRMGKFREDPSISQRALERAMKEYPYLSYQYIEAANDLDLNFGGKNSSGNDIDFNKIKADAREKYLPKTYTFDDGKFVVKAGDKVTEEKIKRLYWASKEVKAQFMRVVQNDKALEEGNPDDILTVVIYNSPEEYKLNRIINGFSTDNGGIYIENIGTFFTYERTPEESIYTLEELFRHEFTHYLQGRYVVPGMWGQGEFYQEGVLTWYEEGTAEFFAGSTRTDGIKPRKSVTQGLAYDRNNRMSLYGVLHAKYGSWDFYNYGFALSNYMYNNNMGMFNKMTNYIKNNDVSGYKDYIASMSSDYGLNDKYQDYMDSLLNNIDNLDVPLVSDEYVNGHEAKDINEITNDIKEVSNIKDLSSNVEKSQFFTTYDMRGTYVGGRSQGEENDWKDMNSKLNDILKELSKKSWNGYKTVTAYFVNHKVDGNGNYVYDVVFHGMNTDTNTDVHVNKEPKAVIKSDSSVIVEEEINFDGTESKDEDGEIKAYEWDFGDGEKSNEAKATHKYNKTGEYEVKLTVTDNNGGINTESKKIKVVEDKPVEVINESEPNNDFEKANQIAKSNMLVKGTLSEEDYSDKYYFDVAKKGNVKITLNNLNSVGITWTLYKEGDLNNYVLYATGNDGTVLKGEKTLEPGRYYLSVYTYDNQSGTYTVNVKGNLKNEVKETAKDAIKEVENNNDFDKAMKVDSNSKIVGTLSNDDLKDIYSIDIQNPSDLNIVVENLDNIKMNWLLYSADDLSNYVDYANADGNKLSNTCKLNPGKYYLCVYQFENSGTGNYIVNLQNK

As to `C[C@@H]1O[C@@H](OC[C@H]2O[C@@H](Oc3c(-c4ccc(OCCO)c(OCCO)c4)oc4cc(OCCO)cc(O)c4c3=O)[C@H](O)[C@@H](O)[C@@H]2O)[C@H](O)[C@H](O)[C@H]1O` [trihydroxyethylrutin, reference compound], the “Inhibition (%) on ColA” value under setting [1] stood at 1.3%.

On to `C[C@H](CS)C(=O)N1CCC[C@H]1C(=O)O` [captopril, reference compound], for which the inhibition at 100 µM under setting [2] was 5.2%.

Regarding `O=C(O)C1CCCN1S(=O)(=O)c1cccc(C(F)(F)F)c1` (stereo not drawn) [1-{[3-(trifluoromethyl)phenyl]sulfonyl}-2-pyrrolidinecarboxylic acid], the inhibition at 100 µM under setting [2] came to 0.7%.

For the compound `NC(=O)NCCC[C@H](NC(=O)OCC1c2ccccc2-c2ccccc21)C(=O)O` [Fmoc-L-citrulline], under setting [1], the “Inhibition (%) on ColA” value turned out to be 20.8%.

For the compound `COc1cc(/C=C/C(=O)CC(=O)/C=C/c2ccc(O)c(OC)c2)ccc1O` [Curcumin, curcumin], the “inhibitory effect on ColA (in words)” value is reported as “very potent ColA inhibitor”. In addition, the “Inhibition (%) on ColA” value under setting [3] is on record as “Almost complete inhibition”. In addition, under setting [4], the inhibition at 1 µM is -10 ± 3.9%, the inhibition at 5 µM was 101.8 ± 0.6%, the inhibition at 10 µM came out at 102.5 ± 0.8% and the inhibition at 50 µM turned out to be 101.5 ± 0.4%. Besides, the inhibition at 100 µM under setting [4] was determined as 101.8 ± 0.7%. The inhibition at 100 µM under setting [2] is 102%.

Regarding `CC(=O)N[C@@H](CS)C(=O)O` [acetylcysteine, reference compound], under setting [2], the inhibition at 100 µM came out at 3.4%.

As to `O=c1cc(-c2ccc(O)cc2)oc2cc(O)cc(O)c12` [apigenin], the inhibition at 100 µM under setting [2] was 2.7%.

For the compound `O=c1c(-c2ccc(O)cc2)coc2cc(O)cc(O)c12` [genistein], under setting [2], the inhibition at 100 µM is -1.1%.

For `N[C@@H](CS)C(=O)O` [cysteine], under setting [2], the inhibition at 100 µM worked out at 1.7%.

With `COc1ccc(-c2coc3cc(O)cc(O)c3c2=O)cc1` [Biochanin A, biochanin A], the “inhibitory effect on ColA (in words)” value is listed as “potent inhibitory effect”. In addition, where the note is “50 µM, mean ± SD of three replications”, the “Inhibition (%) on ColA” value is given as “Almost complete inhibition”. Moreover, under setting [4], the inhibition at 1 µM is -24.8 ± 5.3%, the inhibition at 5 µM turned out to be 23 ± 2.6%, the inhibition at 10 µM is 34.1 ± 2.2% and the inhibition at 50 µM stood at 99.1 ± 1%. Further, under setting [4], the inhibition at 100 µM is 76.1 ± 0.7%. For the same compound, the inhibition at 100 µM under setting [2] is 57.9%.

Regarding `O=c1ccc2cc(O)c(O)cc2o1` [esculetin], the “inhibitory effect on ColA (in words)” value was “low effects”. Further, the inhibition at 100 µM under setting [2] is 11.8%.

For `O=C(O)c1cc(O)c(O)c(O)c1` [gallic acid], the inhibition at 100 µM under setting [2] is -21.4%.

As for myricitrin, the “inhibitory effect on ColA (in words)” value is recorded as “low inhibitory effect”.

For the compound `NS(=O)(=O)c1cc2c(cc1C(F)(F)F)NC(Cc1ccccc1)NS2(=O)=O` (stereo not drawn) [bendroflumethiazide, reference compound], the inhibition at 100 µM under setting [2] was 21.6%.

As for `CC(NS(=O)(=O)c1cccc(Cl)c1)C(=O)O` (racemic) [N-(3-chlorophenylsulfonyl)-DL-alanine], under setting [2], the inhibition at 100 µM is -19.2%.

Regarding `NC(=O)NCCC[C@H](N)C(=O)O` [Citrulline, citrulline], under setting [4], the inhibition at 1 µM was -4.3 ± 3.5%, the inhibition at 5 µM is -14.1 ± 1.4%, the inhibition at 10 µM came to 27.8 ± 3% and the inhibition at 50 µM stood at 24.3 ± 1.7%. Moreover, the inhibition at 100 µM under setting [4] was 7.2 ± 0.5%. In addition, the inhibition at 100 µM under setting [2] worked out at 6.8%.

As for `Oc1cc(O)nc(S)n1` [4,6-dihydroxy-2-mercaptopyrimidine], under setting [2], the inhibition at 100 µM is -7.2%.

Turning to `COc1cc([C@@H]2c3cc4c(cc3[C@H](O)[C@H]3COC(=O)[C@H]23)OCO4)cc(OC)c1OC` [podophyllotoxin, reference compound], the inhibition at 100 µM under setting [2] is -9.7%.

As to `O=c1oc(-c2ccccc2)cc2ccccc12` [3-phenyl-1H-2-benzopyran-1-one], the inhibition at 100 µM under setting [2] turned out to be 0.2%.

`O=S(=O)(O)CCS` [sodium 2-mercaptoethanesulfonate, reference compound]: under setting [2], the inhibition at 100 µM is 20.6%.

Consider `O=C(O)c1cc(O)c2c(c1)C(=O)c1cccc(O)c1C2=O` [Rhein, rhein], for which the “inhibitory effect on ColA (in words)” value was “potent inhibitors of ColA”. Under setting [4], the inhibition at 1 µM turned out to be 2.6 ± 0.6%, the inhibition at 5 µM was 22.9 ± 2.7%, the inhibition at 10 µM is 37.4 ± 3.2% and the inhibition at 50 µM came out at 77.3 ± 2.2%. Also, under setting [4], the inhibition at 100 µM amounted to 80.6 ± 1%. Besides, the inhibition at 100 µM under setting [2] was 78.5%.

In the case of `COc1ccc(-c2coc3cc(OC)ccc3c2=O)cc1` [daidzein dimethyl ether], the “Inhibition (%) on ColA” value under setting [1] is listed as 15.7%.

Regarding `COc1cc(-c2oc3cc(O)cc(O)c3c(=O)c2O)ccc1O` [isorhamnetin], under setting [2], the inhibition at 100 µM is 19.9%.

As to `Cc1cc(NC(=O)C2=C(O)c3ccccc3S(=O)(=O)N2C)no1` [isoxicam, reference compound], under setting [2], the inhibition at 100 µM is -10.1%.

As to `COc1ccc(-c2oc3ccccc3c(=O)c2O)cc1` [4'-methoxyflavonol, 4′-methoxyflavonol], the inhibition at 100 µM under setting [2] was 3.7%.

As for `c1ccc2c3c([nH]c2c1)CNCC3` [tetrahydronorharman], under setting [1], the “Inhibition (%) on ColA” value was determined as 21.3%.

Regarding `O=c1c(O)c(-c2ccccc2)oc2ccccc12` [3-Hydroxyflavone, 3-hydroxyflavone], the “inhibitory effect on ColA (in words)” value is listed as “low impact on the enzyme activity”. Under setting [4], the inhibition at 1 µM is -13.4 ± 2.7%, the inhibition at 5 µM was -17 ± 5.1%, the inhibition at 10 µM amounted to 17.4 ± 4.5% and the inhibition at 50 µM turned out to be 25.1 ± 6.8%. The inhibition at 100 µM under setting [4] was 31 ± 4.3%. Moreover, the inhibition at 100 µM under setting [2] worked out at 27.6%.

Turning to `C[C@]1(Cn2ccnn2)[C@H](C(=O)O)N2C(=O)C[C@H]2S1(=O)=O` [tazobactam, reference compound], under setting [2], the inhibition at 100 µM is 18.7%.

In the case of `Cc1ccc(S(=O)(=O)N[C@@H](CCCNC(=N)N)C(=O)O)cc1` [nalpha-p-toluenesulfonyl-L-arginine], the “Inhibition (%) on ColA” value under setting [1] turned out to be 24.8%.

With `O=C(/C=C/c1ccccc1)c1ccccc1O` [2′-Hydroxychalcone, 2′-hydroxychalcone], the “inhibitory effect on ColA (in words)” value is on record as “potent inhibitory effect”. For the same compound, where the note is “100 µM, mean ± SD of three replications (five-dose assay)”, the “Inhibition (%) on ColA” value is “Almost complete inhibition”. In addition, under setting [4], the inhibition at 1 µM was -12.1 ± 0.2%, the inhibition at 5 µM came out at 1.2 ± 0.9%, the inhibition at 10 µM is 6.5 ± 1.3% and the inhibition at 50 µM amounted to 21.8 ± 1.2%. The inhibition at 100 µM under setting [4] worked out at 97.3 ± 1.3%. Further, under setting [2], the inhibition at 100 µM turned out to be 87.8%.

In the case of S-(acetamidomethyl)-L-cysteine, the “Inhibition (%) on ColA” value under setting [1] is recorded as -15.2%.

Regarding `Oc1cc(O)c2c(c1)O[C@H](c1ccc(O)c(O)c1)[C@H](O)C2` [epicatechin], the inhibition at 100 µM under setting [2] is 3.6%.

In the case of `Cc1ccc(S(=O)(=O)NC(N)=O)cc1` [4-methylphenylsulfonylurea], the inhibition at 100 µM under setting [2] was determined as 19.6%.

`O=c1c(-c2ccc(O)cc2)coc2cc(O)ccc12` [daidzein]: the inhibition at 100 µM under setting [2] was determined as 5.8%.

With `COc1ccc2oc(-c3ccccc3)c(O)c(=O)c2c1` [6-methoxyflavonol], under setting [2], the inhibition at 100 µM amounted to 10.7%.

Turning to `O=c1cc(-c2ccccc2)oc2cc(O)cc(O)c12` [chrysin], the “inhibitory effect on ColA (in words)” value is reported as “low inhibitory effects”. Also, the inhibition at 100 µM under setting [2] was -3.4%.

Regarding `CC(=O)c1ccc(S(=O)(=O)NC(=O)NC2CCCCC2)cc1` [acetohexamide, reference compound], the inhibition at 100 µM under setting [2] turned out to be 16.6%.

On to `O=C(O)/C=C/c1ccc(O)c(O)c1` [caffeic acid], for which the “inhibitory effect on ColA (in words)” value is on record as “low effects”. For the same compound, the inhibition at 100 µM under setting [2] was -3.8%.

Turning to `O=C1C=C(O)C(=O)c2ccccc21` [lawsone], the inhibition at 100 µM under setting [2] is -6.1%.

For the compound `COc1cc(CNC(=O)CCCC/C=C/C(C)C)ccc1O` [Capsaicin, capsaicin, reference compound], the “IC50 (in words)” value is “nanomolar range”. In addition, under “1 µM, mean ± SD of three replications, 1 µM”, the “Inhibition (%) on ColA” value is 94.8 ± 0.8%. In addition, under “1 µM, mean ± SD of three replications, listed as capsaicin, 1 µM”, the “Inhibition (%) on ColA” value is listed as “Almost complete inhibition”. Moreover, under setting [3], the “Inhibition (%) on ColA” value stood at 100.5 ± 0.8%. Also, the “Inhibition (%) on ColA” value under setting [1] was found to be 87.9%.

In the case of `O=C1c2c(O)cccc2C([C@@H]2O[C@H](CO)[C@@H](O)[C@H](O)[C@H]2O)c2cc(CO)cc(O)c21` (stereo partly drawn) [aloin], under setting [2], the inhibition at 100 µM amounted to 4.4%.

Turning to `O=c1ccc2ccc(O)cc2o1` [umbelliferone], the inhibition at 100 µM under setting [2] was -10.2%.

On to `COc1ccc2[nH]c3c(c2c1)CCNC3C(=O)O` (stereo not drawn) [6-methoxy-1,2,3,4-tetrahydro-9H-pyrido [3,4-b]indole-1-carboxylic acid], for which, under setting [4], the inhibition at 1 µM is -19.9 ± 2.7%, the inhibition at 5 µM was -1.3 ± 2.1%, the inhibition at 10 µM was -5.2 ± 0.7% and the inhibition at 50 µM was found to be 2.8 ± 1.3%. Moreover, the inhibition at 100 µM under setting [4] was 19.6 ± 3.9%. Besides, under setting [2], the inhibition at 100 µM is 18.8%.

With `CC(=O)c1c(O)c(C)c(O)c2c1OC1=CC(=O)C(C(C)=O)C(=O)C12C` (stereo not drawn) [usnic acid], the inhibition at 100 µM under setting [2] stood at 3.9%.

In the case of `O=C(O)C=Cc1cccc(O)c1` [3-hydroxycinnamic acid], the inhibition at 100 µM under setting [2] is 0.8%.

Consider `O=C(O)[C@H]1/C(=C/CO)O[C@@H]2CC(=O)N21` [potassium clavulanate, reference compound], for which the inhibition at 100 µM under setting [2] was -8.1%.

Regarding `O=C(O)C1=C[C@@H](O)[C@@H](O)[C@H](O)C1` [shikimic acid], under setting [2], the inhibition at 100 µM was -0.2%.

In the case of `C[C@@]12C(=O)OC(=O)[C@]1(C)[C@H]1CC[C@@H]2O1` [cantharidin], the inhibition at 100 µM under setting [2] is 26.8%.

On to `C/C(=C(\CCOP(=O)(O)O)SC(=O)c1ccccc1)N(C=O)Cc1cnc(C)nc1N` [benfotiamine, reference compound], for which the inhibition at 100 µM under setting [2] was -20.4%.

Regarding `C[C@H](N)C(=O)O` [L-alanine], under setting [2], the inhibition at 100 µM is 3.1%.

Regarding `O=C1c2ccccc2C(=O)c2c(O)ccc(O)c21` [1,4-dihydroxyanthraquinone], the inhibition at 100 µM under setting [2] was found to be 3.2%.

Turning to `O=C(/C=C/c1ccc(O)c(O)c1)O[C@@H]1C[C@](O)(C(=O)O)C[C@@H](O)[C@H]1O` [chlorogenic acid], the inhibition at 100 µM under setting [2] stood at 4.8%.
